{
  "source": "PubChem BioAssay AID743417",
  "about": "(Broad Institute, 2014)",
  "note": "Records with an inconclusive call do not appear. Calls of active or inactive are those of the source.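 Rule for the calls: active = compounds lowering the luciferase signal with a fitted half-maximal dose at most twice their top valid dose (cut at about 30 µM in these data); inconclusive = flat fits with moderate signal loss, or poor fits; inactive = the rest.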",
  "data": [
    {"system": "Clone20 osteoblast Shn3 3'UTR firefly luciferase, 24 h", "test": "Schnurri-3 3'UTR-luciferase signal suppressors – cell-based, Clone20 osteoblasts, luminescence, dry powder, set 2, dose response (AID 743417)", "values": [
      {"smiles": "CC(C)C[C@@H](CO)N(Cc1ccccc1)S(=O)(=O)N(Cc1ccccc1)[C@@H](CO)CC(C)C", "AC50": "11.4 µM"},
      {"smiles": "COc1ccc(C(=O)NNC(=O)c2cccc(S(=O)(=O)N3CCOCC3)c2)cc1", "AC50": "23.2 µM"},
      {"smiles": "NC(=O)c1cc(N2C(=O)C=CC2=O)ccc1Cl", "AC50": "11.3 µM"},
      {"smiles": "COc1cc(OC)c(OC)cc1CNc1cc(C)ccc1OC", "AC50": "18.1 µM"},
      {"smiles": "COc1ccc(OCC(O)CNCCOc2ccccc2OC)c(C(C)(C)C)c1", "note": "(stereo not drawn)", "AC50": "11.6 µM"},
      {"smiles": "N#C/C(=C(\\O)Cc1ccccc1)c1nc2ccccc2[nH]1", "AC50": "> 70 µM (inactive)"},
      {"smiles": "CC(C)c1nnc(NC(=O)c2nc(S(=O)(=O)Cc3ccc(F)cc3)ncc2Cl)s1", "AC50": "2.83 µM"},
      {"smiles": "CC1(C)CC[C@]2(C(=O)n3ccnc3)CC[C@]3(C)[C@H](C(=O)C=C4[C@@]5(C)C=C(C#N)C(=O)C(C)(C)[C@@H]5CC[C@]43C)[C@@H]2C1", "AC50": "< 0.26 µM"},
      {"smiles": "O=C(CSc1ccccn1)Nc1nonc1[N+](=O)[O-]", "AC50": "5 µM"},
      {"smiles": "CCC1CCCCN1S(=O)(=O)c1ccc(NC(=O)c2ccncc2)cc1", "note": "(stereo not drawn)", "AC50": "3.43 µM"},
      {"smiles": "Cc1ccc(S(=O)(=O)CCC(=O)OCC(=O)Nc2cc(S(=O)(=O)N3CCOCC3)ccc2C)cc1", "AC50": "17.8 µM"},
      {"smiles": "COc1ccc2c(c1)c(CC(=O)Nc1cc(C)ccc1C)c(C)n2C(=O)c1ccc(Cl)cc1", "AC50": "5.69 µM"},
      {"smiles": "CCCOc1ccccc1N/C(=N/c1nc(C)cc(C)n1)NC(=O)COc1ccc(OC)cc1", "AC50": "3.24 µM"},
      {"smiles": "CN(CCO)c1cc(Sc2nc3ccccc3s2)c2nonc2c1[N+](=O)[O-]", "AC50": "1.55 µM"},
      {"smiles": "CC(C)CC(NC(=O)c1ccc(Cl)cc1)C(=O)OCC(=O)c1ccc2c(c1)NC(=O)CO2", "note": "(stereo not drawn)", "AC50": "4.01 µM"},
      {"smiles": "O=C(Nc1ccccc1)Nc1cc(OCC(F)(F)F)cc(OCC(F)(F)F)c1", "AC50": "6.4 µM"},
      {"smiles": "CCC(OC(=O)c1ccc(S(C)(=O)=O)c([N+](=O)[O-])c1)C(=O)NC1C2CC3CC(C2)CC1C3", "note": "(stereo not drawn)", "AC50": "1.66 µM"},
      {"smiles": "Cc1ccccc1C(=O)N1CCN(c2ccc(NC(=O)c3ccc4c(c3)OCCO4)cc2)CC1", "AC50": "2.17 µM"},
      {"smiles": "O=C(Nc1ccc(Cl)cc1)/C(=C/c1cccc(O)c1)c1nc2ccccc2s1", "AC50": "3.53 µM"},
      {"smiles": "COc1cc2nc(N3CCN(c4cc(C)ccc4C)CC3)nc(N)c2cc1OC", "AC50": "5.44 µM"},
      {"smiles": "CC(C)(C)n1nnnc1C(c1ccc(C(F)(F)F)cc1)N(Cc1ccc(F)cc1)Cc1ccco1", "note": "(stereo not drawn)", "AC50": "10.1 µM"},
      {"smiles": "Cc1ccccc1OCC(O)CNC1CCC(NCC(O)COc2ccccc2C)CC1", "note": "(stereo not drawn)", "AC50": "4.5 µM"},
      {"smiles": "Nc1nc(N)c2cc(Sc3cccc(C(F)(F)F)c3)ccc2n1", "AC50": "4.87 µM"},
      {"smiles": "Cc1ccccc1CN1CC2=C(CCN(Cc3ccccc3)C2=O)N2CCN=C12", "AC50": "2.41 µM"},
      {"smiles": "COc1ccc(C(=O)NC(=S)NNC(=O)c2ccc3ccccc3n2)cc1", "AC50": "4.32 µM"},
      {"smiles": "COc1cc(C2c3cc4c(cc3C(OC3OC5COC(c6cccs6)OC5C(O)C3O)C3COC(=O)C23)OCO4)cc(OC)c1O", "note": "(stereo not drawn)", "AC50": "1.11 µM"},
      {"smiles": "CC1CCN(c2ccccc2NC(=S)NC(=O)c2ccc(-c3cccc([N+](=O)[O-])c3)o2)CC1", "AC50": "3.07 µM"},
      {"smiles": "Cc1nc2ccc(NC(=O)c3cccc(S(=O)(=O)N(C)c4ccccc4)c3)cc2s1", "AC50": "7.6 µM"},
      {"smiles": "Cc1ccc2nc(-c3ccc(O)c(O)c3)cn2c1", "AC50": "4.2 µM"},
      {"smiles": "COc1ccc(-c2nc(CN3CCN(c4ncnc5ccccc45)CC3)c(C)o2)c(OC)c1", "AC50": "6.38 µM"},
      {"smiles": "C=C1C(=O)C23CCC4C(C)(C(=O)OC)CCCC4(C)C2CCC1(O)C3", "note": "(stereo not drawn)", "AC50": "0.976 µM"},
      {"smiles": "C=CCNc1nc(N2CCOCC2)c(C#N)c2c1CN(C)CC2", "AC50": "> 70 µM (inactive)"},
      {"smiles": "Cc1sc2ncnc(NC3CCN(Cc4ccccc4)CC3)c2c1C", "AC50": "1.02 µM"},
      {"smiles": "Cc1nc(NC(C)c2ccccc2)c2oc3ccccc3c2n1", "note": "(stereo not drawn)", "AC50": "3.06 µM"},
      {"smiles": "O=C(/C(=C/c1ccc(Cl)cc1)c1nc2ccccc2[nH]1)c1cccs1", "AC50": "2.66 µM"},
      {"smiles": "CN(C)S(=O)(=O)c1cccc(NC(=O)c2cccc(S(=O)(=O)N3CCc4ccccc43)c2)c1", "AC50": "3.92 µM"},
      {"smiles": "CC(O)CC(=O)OC[C@]12CC[C@H]3[C@@](C)(CC[C@H]4C(C)(C)CCC[C@]34C)[C@@H]1CC(C1=CC(=O)OC1O)O2", "note": "(stereo partly drawn)", "AC50": "3.75 µM"},
      {"smiles": "O=C(NCc1cccnc1)/C(=C\\c1ccc(-c2ccc(Br)cc2)o1)S(=O)(=O)c1ccccc1", "AC50": "6.33 µM"},
      {"smiles": "N#CC(c1cccc(Cl)c1)c1ccc2c(C(F)(F)F)cc(C(F)(F)F)nc2n1", "note": "(stereo not drawn)", "AC50": "0.689 µM"},
      {"smiles": "CC1=CC2/C=C(\\C)CCC(O)C(O)/C=C/C(=O)C23C(=O)NC(CC(C)C)C3C1C", "note": "(stereo not drawn)", "AC50": "5.29 µM"},
      {"smiles": "CC1CCC/C=C/C(=O)c2c(O)cc(O)cc2CC(=O)O1", "note": "(stereo not drawn)", "AC50": "4.12 µM"},
      {"smiles": "Cc1ccc(C(=O)OCn2ncc(Cl)c(Cl)c2=O)cc1", "AC50": "5.07 µM"},
      {"smiles": "COc1ccc(NC(=O)/C(Cl)=C(/Cl)S(=O)Cc2ccccc2)cn1", "note": "(stereo not drawn)", "AC50": "< 0.26 µM"},
      {"smiles": "CCc1ccc(OCC(=O)NC(NC(=S)Nc2ccc(Cl)cc2)C(Cl)(Cl)Cl)cc1", "note": "(stereo not drawn)", "AC50": "4.96 µM"},
      {"smiles": "C=CCSc1nc2ccccc2n1C(=O)/C=C/c1ccc(OC)c(OC)c1", "AC50": "1.31 µM"},
      {"smiles": "CCN(CC)c1ccc(NC(=O)CN2C(=O)CSc3ncccc32)c(C)c1", "AC50": "1.78 µM"},
      {"smiles": "CCCCCn1c(=O)c(C(=O)NC(C)c2ccccc2)c(O)c2ccccc21", "note": "(stereo not drawn)", "AC50": "11.7 µM"},
      {"smiles": "CC1=NNC(=O)/C1=C\\c1cn(-c2ccccc2)nc1-c1ccccc1", "AC50": "8.42 µM"},
      {"smiles": "CC(=O)C1(C)CCC2C3C=C(C)C4=CC(=O)CCC4(C)C3CCC21C", "note": "(stereo not drawn)", "AC50": "9.83 µM"},
      {"smiles": "O=C(OCc1ccccc1)N(CCCCN(CCCNCc1ccccc1)C(=O)OCc1ccccc1)CCCNCc1ccccc1", "AC50": "5.36 µM"},
      {"smiles": "CCOC(=O)C1CCCN(C(=O)Cn2sc3nc(C)cc(C)c3c2=O)C1", "note": "(stereo not drawn)", "AC50": "12.5 µM"},
      {"smiles": "c1ccc(CNc2ncnc3scc(-c4cccs4)c23)nc1", "AC50": "3.59 µM"},
      {"smiles": "O=C(O)c1cccc(COc2ccc(CO)cc2Cl)c1", "AC50": "1.04 µM"},
      {"smiles": "Cc1cc(C)c2nc(NNC(=O)c3ccc(S(=O)(=O)N4CC(C)CC(C)C4)cc3)sc2c1", "note": "(stereo not drawn)", "AC50": "2.28 µM"},
      {"smiles": "CN1CCN(c2ccc(-c3ccc4ccccc4n3)cc2)CC1", "AC50": "2.73 µM"},
      {"smiles": "O=C(Nc1cccc(C(F)(F)F)c1)c1sc(Cl)nc1C(F)(F)F", "AC50": "9.06 µM"},
      {"smiles": "CC(CC(=O)N1CCN(c2cccc(Cl)c2)CC1)S(=O)(=O)c1ccc2c(c1)NC(=O)CO2", "note": "(stereo not drawn)", "AC50": "3.99 µM"},
      {"smiles": "Oc1cccc(C(Nc2nccs2)c2ccc3cccnc3c2O)c1", "note": "(stereo not drawn)", "AC50": "1.67 µM"},
      {"smiles": "O=C1c2c(O)ccc(O)c2C(=O)c2c(NCCNCCO)ccc(NCCNCCO)c21", "AC50": "0.658 µM"},
      {"smiles": "O=C1CCCN2N=C(SCC(=O)Nc3cccc(C(F)(F)F)c3)SC2=N1", "AC50": "4.37 µM"},
      {"smiles": "COCC1CCN(C(=O)c2cc(COc3ccc4ncccc4c3)on2)CC1", "AC50": "2.7 µM"},
      {"smiles": "Cc1ccc(NC(=O)c2oc3ccccc3c2COC(C)C)cc1S(=O)(=O)N1CCOCC1", "AC50": "14.4 µM"},
      {"smiles": "Cc1ccc([C@@H]2CC(=O)[C@@H]3CN(S(=O)(=O)c4ccccc4C)[C@H](c4ccc(Cl)cc4)C[C@@H]3N2S(=O)(=O)c2ccc(C)cc2)cc1", "AC50": "0.361 µM"},
      {"smiles": "O=C(CN(C(=O)c1ccccc1Cl)C1CCCCC1)Nc1ccc(Cl)c([N+](=O)[O-])c1", "AC50": "5.1 µM"},
      {"smiles": "CN1/C(=C\\C=C2/SC(=S)NC2=O)C(C)(C)c2ccccc21", "AC50": "2.6 µM"},
      {"smiles": "CSc1ccc(CN(C)C(=O)c2cccc(S(=O)(=O)N3CCN(Cc4ccccc4)CC3)c2)cc1", "AC50": "2.89 µM"},
      {"smiles": "O=S1(=O)C=C(Sc2nc3cc(Cl)ccc3o2)c2ccccc21", "AC50": "< 0.26 µM"},
      {"smiles": "CCCc1nc([N+](=O)[O-])c(S(=O)(=O)c2ccccc2)n1CC(C)C", "AC50": "7.39 µM"},
      {"smiles": "CCN(CC)S(=O)(=O)c1ccc(C)c(NC(=S)N2CCN(C/C=C/c3ccccc3)CC2)c1", "AC50": "2.55 µM"},
      {"smiles": "Cc1ccc(OCCN2CCN(c3ncnc4sc(C)c(C)c34)CC2)cc1", "AC50": "0.754 µM"},
      {"smiles": "COc1ccc(C(NC(C)=O)c2ccc3cccnc3c2O)c(OC)c1", "note": "(stereo not drawn)", "AC50": "1.74 µM"},
      {"smiles": "Cn1cc(S(=O)(=O)N2CCc3ccccc32)cc1C(=O)NC(C)(C)C", "AC50": "1.25 µM"},
      {"smiles": "COc1ccc(CC(=O)Nc2ccncc2Cl)cc1", "AC50": "2.12 µM"}
    ]}
  ]
}
